The values that follow come from PMC11281459 (Viruses, 2024).

Assay [1] deals with SARS-CoV-2. In words: microbe, parasite or virus in culture. In kind it is cell-based. To be noted: Severe acute respiratory syndrome coronavirus 2, VeroE6/TMPRSS2, 48 h, read-out: IC50 values across different SARS-CoV-2 Omicron subvariants.
The test system of assay [2] is SARS-CoV-2. In words: microbe, parasite or virus in culture. In kind it is cell-based. To be noted: Severe acute respiratory syndrome coronavirus 2, VeroE6/TMPRSS2, 72 h, read-out: EC50 across SARS-CoV-2 Omicron subvariants (CPE by CellTiter-Glo).

As to `CNC(=O)C(=O)[C@H](CCC(C)(F)F)NC(=O)[C@@H]1[C@H]2CCC[C@H]2CN1C(=O)[C@@H](NC(=O)OC)C(C)(C)C` [MK-7845], the IC50 (usually the midpoint of a concentration-inhibition curve) in the assay on SARS-CoV-2 [1] lay within 80 to 300 nM. Further, the EC50 (as a rule, the concentration at which the effect is half-maximal) with SARS-CoV-2 [2] lay within 90 to 330 nM.
